Earlier results as cited in patent publication EP1190712A1 (SMB Technology, priority 2000, dated 2002).

Details: human, in vivo

**Q.** For `COc1cccc(C2(O)CCCCC2CN(C)C)c1` (stereo not shown) [Tramadol], which “Cmax (time)” value is on record?
**A.** The value was 30 to 60 min.
